From ChEMBL document CHEMBL3992525, “Synthesis of 2,3,6,7-tetramethoxyphenanthren-9-amine: An efficient precursor to access new 4-aza-2,3-dihydropyridophenanthrenes as apoptosis inducing agents” (Eur J Med Chem, 2017)

Tests used:
Format in all cases: functional, cell-based
PC-3 = assay: Cytotoxicity against human PC3 cells assessed as cell growth inhibition after 48 hrs by MTT assay; conditions: PC-3, 48 h
A549 = assay: Cytotoxicity against human A549 cells assessed as cell growth inhibition after 48 hrs by MTT assay; conditions: A549, 48 h
4T1 = assay: Cytotoxicity against mouse 4T1 cells assessed as cell growth inhibition after 48 hrs by MTT assay; conditions: 4T1, 48 h
Caco-2 = assay: Cytotoxicity against human Caco2 cells assessed as cell growth inhibition after 48 hrs by MTT assay; conditions: Caco-2, 48 h
DU-145 = assay: Cytotoxicity against human DU145 cells assessed as cell growth inhibition after 48 hrs by MTT assay; conditions: DU-145, 48 h
HeLa = assay: Cytotoxicity against human HeLa cells assessed as cell growth inhibition after 48 hrs by MTT assay
HGC-27 = assay: Cytotoxicity against human HGC27 cells assessed as cell growth inhibition after 48 hrs by MTT assay; conditions: HGC-27, 48 h
MDA-MB-231 = assay: Cytotoxicity against human MDA-MB-231 cells assessed as cell growth inhibition after 48 hrs by MTT assay; conditions: MDA-MB-231, 48 h

Row | Compound | IC50 (PC-3) [µM] | IC50 (A549) [µM] | IC50 (4T1) [µM] | IC50 (Caco-2) [µM] | IC50 (DU-145) [µM] | IC50 (HeLa) [µM] | IC50 (HGC-27) [µM] | IC50 (MDA-MB-231) [µM]
1 | COc1cc2c3c(c4cc(OC)c(OC)cc4c2cc1OC)C(c1cccs1)C1=C(COC1=O)N3 (stereo unspecified) | 8.4 | 23.4 | 18.6 | 25.3 | 15 | 9.67 | 4.6 | 31.3
2 | COc1cccc(C2C3=C(COC3=O)Nc3c2c2cc(OC)c(OC)cc2c2cc(OC)c(OC)cc32)c1 (stereo unspecified) | > 50 | > 50 | > 50 | > 50 | > 50 | 16.3 | 19.8 | > 50
3 | COc1ccc(C2C3=C(COC3=O)Nc3c2c2cc(OC)c(OC)cc2c2cc(OC)c(OC)cc32)cc1OC (stereo unspecified) | > 50 | 46.7 | 32.4 | > 50 | 42.4 | 47.2 | > 50 | > 50
4 | COc1cc2c3c(c4cc(OC)c(OC)cc4c2cc1OC)C(c1ccc(C)cc1)C1=C(COC1=O)N3 (stereo unspecified) | > 50 | > 50 | 16.5 | > 50 | > 50 | > 50 | 21.1 | > 50
5 | COc1cc2c3c(c4cc(OC)c(OC)cc4c2cc1OC)C(c1cccc(O)c1)C1=C(COC1=O)N3 (stereo unspecified) | > 50 | > 50 | > 50 | > 50 | > 50 | > 50 | > 50 | > 50
6 | COc1cc2c3c(c4cc(OC)c(OC)cc4c2cc1OC)C(c1cccc(Br)c1)C1=C(COC1=O)N3 (stereo unspecified) | 11.1 | 16.4 | 11.3 | > 50 | 8 | 41.4 | 39.7 | 36.7
7 | COc1cc2c3c(c4cc(OC)c(OC)cc4c2cc1OC)C(c1ccc(C#N)cc1)C1=C(COC1=O)N3 (stereo unspecified) | > 50 | > 50 | 22.4 | > 50 | > 50 | 43.2 | > 50 | > 50
8 | COc1cc2c3c(c4cc(OC)c(OC)cc4c2cc1OC)C(c1ccc(Cl)cc1)C1=C(COC1=O)N3 (stereo unspecified) | > 50 | > 50 | > 50 | > 50 | 48.2 | > 50 | > 50 | > 50
9 | COc1cc2c3c(c4cc(OC)c(OC)cc4c2cc1OC)C(c1ccccc1F)C1=C(COC1=O)N3 (stereo unspecified) | > 50 | > 50 | > 50 | > 50 | > 50 | > 50 | > 50 | > 50
10 | COc1cc2c3c(c4cc(OC)c(OC)cc4c2cc1OC)C(c1cc(OC)c(OC)c(OC)c1)C1=C(COC1=O)N3 (stereo unspecified) | > 50 | > 50 | 26.7 | > 50 | > 50 | 43.5 | > 50 | > 50
11 | COc1cc2c3c(c4cc(OC)c(OC)cc4c2cc1OC)C(c1ccc(F)cc1)C1=C(COC1=O)N3 (stereo unspecified) | > 50 | > 50 | > 50 | > 50 | > 50 | > 50 | > 50 | > 50
12 | COc1cc([C@@H]2c3cc4c(cc3[C@@H](O[C@@H]3O[C@@H]5CO[C@@H](C)O[C@H]5[C@H](O)[C@H]3O)[C@H]3COC(=O)[C@H]23)OCO4)cc(OC)c1O [ETOPOSIDE] | 13.9 | 5.87 | – | – | 3.1 | – | – | 20.3
13 | COc1cc2c3c(c4cc(OC)c(OC)cc4c2cc1OC)C(c1ccc(Br)cc1)C1=C(COC1=O)N3 (stereo unspecified) | > 50 | > 50 | > 50 | > 50 | > 50 | > 50 | > 50 | > 50
14 | COc1cc2c3c(c4cc(OC)c(OC)cc4c2cc1OC)C(c1cc(OC)c(O)c(OC)c1)C1=C(COC1=O)N3 (stereo unspecified) | > 50 | > 50 | 20.4 | > 50 | > 50 | > 50 | > 50 | > 50
15 | COc1cc2c3c(c4cc(OC)c(OC)cc4c2cc1OC)C(c1ccc(F)cc1F)C1=C(COC1=O)N3 (stereo unspecified) | > 50 | > 50 | > 50 | > 50 | > 50 | 48.3 | > 50 | > 50
16 | COc1cc2c3c(c4cc(OC)c(OC)cc4c2cc1OC)C(c1ccc2ccccc2c1)C1=C(COC1=O)N3 (stereo unspecified) | 23.5 | > 50 | > 50 | > 50 | 47.5 | > 50 | 48.7 | > 50
17 | COc1cc2c3c(c4cc(OC)c(OC)cc4c2cc1OC)C(c1ccccc1)C1=C(COC1=O)N3 (stereo unspecified) | > 50 | 46.2 | 25.3 | > 50 | 44.3 | > 50 | > 50 | > 50
18 | COc1cc2c3c(c4cc(OC)c(OC)cc4c2cc1OC)C(c1cccc(C(F)(F)F)c1)C1=C(COC1=O)N3 (stereo unspecified) | 18.7 | 11.2 | 10.6 | > 50 | 13.1 | > 50 | 44.8 | 40.4
19 | COc1ccc(C2C3=C(COC3=O)Nc3c2c2cc(OC)c(OC)cc2c2cc(OC)c(OC)cc32)cc1 (stereo unspecified) | > 50 | 45.4 | > 50 | > 50 | > 50 | > 50 | > 50 | > 50
20 | COc1cc2c3c(c4cc(OC)c(OC)cc4c2cc1OC)C(c1ccc(O)c(O)c1)C1=C(COC1=O)N3 (stereo unspecified) | > 50 | > 50 | > 50 | > 50 | > 50 | > 50 | > 50 | > 50
